This test has as its target T1, FsCE15 (Fibrobacter succinogenes, UniProt C9RKY6).
T1 construct: gene FSU_2898; codon-optimised synthetic gene, His6 tag (C-terminal for crystals)
As to the kind of experiment: continuous coupled uronic acid assay (Megazyme K-Uronic). Type of test: biochemical. The following applies: pH 7.0, 3-component buffer, 2 mM substrate.

T1 sequence (C9RKY6 entry or part of it): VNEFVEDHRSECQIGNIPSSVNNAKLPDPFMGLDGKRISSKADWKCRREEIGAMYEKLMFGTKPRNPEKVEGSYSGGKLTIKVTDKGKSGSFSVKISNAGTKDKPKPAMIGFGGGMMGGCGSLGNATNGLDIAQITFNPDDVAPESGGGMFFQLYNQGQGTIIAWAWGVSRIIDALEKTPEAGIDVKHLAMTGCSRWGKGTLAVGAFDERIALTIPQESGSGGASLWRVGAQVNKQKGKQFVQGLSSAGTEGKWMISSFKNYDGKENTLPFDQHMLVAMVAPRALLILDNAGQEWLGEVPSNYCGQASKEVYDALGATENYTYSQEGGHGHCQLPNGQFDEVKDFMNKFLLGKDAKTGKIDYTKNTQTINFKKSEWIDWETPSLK

On to `C=CCOC(=O)[C@H]1OC(O)[C@H](O)[C@@H](O)[C@@H]1O` (stereo partly drawn) [Allyl D-glucuronate], for which the “continuous coupled uronic acid assay (Megazyme K-Uronic)” value is “All of the enzymes cleaved AllylGlcA”.

These data come from article PMC11345330, “Structural, Biochemical, and Phylogenetic Analysis of Bacterial and Fungal Carbohydrate Esterase Family 15 Glucuronoyl Esterases in the Rumen” (The Protein Journal, 2024).
